Data published in ChEMBL document CHEMBL3988442, “University of Dundee, Small-Polar-MMV Screening Library” (2021).

What was measured:
[1] = microbe, parasite or virus in culture; conditions: Mycobacterium tuberculosis, 72 h, read-out: pIC50 (converted)
[2] = microbe, parasite or virus in culture; conditions: Mycobacterium tuberculosis, 96 h, read-out: pIC50 (converted)

| Compound | IC50 [1] | IC50 [2] |
| --- | --- | --- |
| c1ccc(C2=NN=C(NC3CC3)SC2)cc1 | 230 µM | 140 µM |
| OC1CCN(Cc2ccc3c(c2)CCC3)C1 (stereo not given) | 213 µM | > 501 µM |
| C=C(C)CN1CCN(c2ccccn2)CC1 | > 501 µM | > 501 µM |
| CNC(=O)c1cccc(NCc2ccc(C#N)s2)n1 | 180 µM | 205 µM |
| CCNC(=O)c1ccn(-c2ccccc2)n1 | 340 µM | 232 µM |
| NCCn1cc(C(=O)NCCSC2CCCCC2)nn1 | 178 µM | 129 µM |
| NCCc1nc(C2CC2)cs1 | 91.5 µM | 103 µM |
| CCN(C)C(=O)Nc1ccc(C(=O)OC)c(F)c1 | > 501 µM | > 501 µM |
| Cc1cc(C2CCC2)nc(N2CCNC(=O)C2)n1 | 119 µM | 44.3 µM |
| CO[C@H]1CNCC1NC(=O)c1cc2ccccc2n1C (stereo not given in full) | 359 µM | > 501 µM |
| CN1CCOC(C(=O)Nc2ncc(Cl)s2)C1 (stereo not given) | 361 µM | 296 µM |
| CC(CO)(CO)NC(=O)c1cnc(-c2cccs2)s1 | > 501 µM | > 501 µM |
| Cc1ccc(OCC(=O)Nc2nnn(C)n2)cc1 | 274 µM | > 501 µM |
| NCC(NS(=O)(=O)CCc1cccs1)C1CC1 (stereo not given) | 167 µM | 47.8 µM |
| Cc1cc(-c2noc(C(C)N)n2)ccc1F (stereo not given) | 457 µM | > 501 µM |
| CCS(=O)(=O)c1ccc(CNc2ncccc2Cl)cc1 | 242 µM | > 501 µM |
| Cc1cnc(C(=O)NCCSCc2ccco2)cn1 | > 501 µM | > 501 µM |
| NCCNS(=O)(=O)c1ccc(F)c(C(F)(F)F)c1 | 476 µM | > 501 µM |
| Cc1ccc(S(=O)(=O)N2CCOc3ccncc32)cc1 | 99.3 µM | 457 µM |
| CNC(=O)CCSc1ccc2c(c1)OCCO2 | 143 µM | 165 µM |
| Fc1ccc(Cn2ccnn2)c(Cl)c1 | > 501 µM | > 501 µM |
| CNC(=O)CSc1nnnn1-c1ccc(C(C)C)cc1 | 120 µM | 134 µM |

| Compound | IC50 [1] | IC50 [2] |
| --- | --- | --- |
| COc1ccccc1C(O)CNc1cccc(C)n1 (stereo not given) | > 501 µM | 136 µM |
| CC(=O)NCCCNCc1ccc(Br)c2cccnc12 | 278 µM | > 501 µM |
| CN(C)c1cc(Cn2cnc3sccc3c2=O)ccn1 | > 501 µM | > 501 µM |
| CN(C)S(=O)(=O)c1cc2c(cc1Cl)OCCO2 | 209 µM | > 501 µM |
| NCc1cccc(C(=O)NCc2ccco2)c1 | > 501 µM | > 501 µM |
| CS(=O)(=O)N1CCC(NCCSc2cnn[nH]2)CC1 | > 501 µM | > 501 µM |
| Clc1cnc(NCCNCc2cc[nH]n2)c(Cl)c1 | 227 µM | > 501 µM |
| NCc1cccc2cc[nH]c12 | 245 µM | 261 µM |
| Cc1ccc(-c2noc(C(C)N)n2)cc1F (stereo not given) | 368 µM | 327 µM |
| COCc1nn(Cc2ccccc2Cl)c(=O)o1 | 35.9 µM | 393 µM |
| COc1ccc(C(=O)NCCSc2cnn[nH]2)cc1F | > 501 µM | > 501 µM |
| N#Cc1ccccc1CN1CCCC1CO (stereo not given) | 129 µM | 176 µM |
| NC1CCCN(Cc2ccccc2)C1 (stereo not given) | 262 µM | > 501 µM |
| COc1ccc(F)cc1C(=O)OCC(=O)NC1CC1 | 105 µM | 212 µM |
| COc1ccc(C)cc1CCN | 272 µM | 277 µM |
| CC(C)c1cc(C(=O)N2CC[C@@H](N)C2)nn1C(C)(C)C | > 501 µM | > 501 µM |
| CN1CC(=O)Nc2cccnc21 | 157 µM | 314 µM |
| COC(=O)NCC(=O)N(C)c1ccc2ccccc2c1 | 129 µM | > 501 µM |
| CC(N)c1noc(-c2ccc(Cl)cc2)n1 (stereo not given) | 261 µM | 375 µM |
| CCc1nc(CNC)cs1 | 305 µM | 236 µM |
| CN(C)C(=O)CN1CCOC(CCc2ccccc2)C1 (stereo not given) | > 501 µM | > 501 µM |
| O=C1CCN(Cc2cc(Br)cc3cccnc23)CCN1 | 493 µM | > 501 µM |

| Compound | IC50 [1] | IC50 [2] |
| --- | --- | --- |
| O=C(c1cnsn1)N1CC=C(c2ccccc2)CC1 | 35.1 µM | 237 µM |
| COc1cccc(C2=NN=C(NC3CC3)SC2)c1 | 97.4 µM | 111 µM |
| c1nsnc1-c1nc(C2CCCO2)no1 (stereo not given) | 118 µM | > 501 µM |
| CCCSc1ccc(NC(=O)NCCN)cc1 | 187 µM | 233 µM |
| CN(Cc1c(F)cccc1Cl)S(=O)(=O)N1CCOCC1 | 270 µM | 269 µM |
| N#Cc1cccc(NCC(=O)NCc2ccco2)c1 | 223 µM | 108 µM |
| CN(Cc1ccco1)C(=O)CCc1ccc(C#N)cc1 | 31.7 µM | 77.4 µM |
| CC(N)C(=O)N1CCC(Oc2ccccc2Cl)CC1 (stereo not given) | 288 µM | 227 µM |
| Cc1cccc(C(=O)NCc2cccc(O)c2)n1 | 172 µM | 489 µM |
| COc1cccc(N2CCC(N)CC2)c1 | 426 µM | 213 µM |
| NC(=O)CN1CCC(OCCCc2ccccc2)C1 (stereo not given) | 246 µM | 369 µM |
| CS(=O)(=O)NC(c1ccc(F)cc1)c1cccnc1 (stereo not given) | 338 µM | > 501 µM |
| CN(C(=O)CN)c1ccc(-c2ccccc2)cc1 | 305 µM | 260 µM |
| O=C(NCCC(O)C(F)(F)F)c1c(O)cc(F)cc1F (stereo not given) | 290 µM | 244 µM |
| COc1ccc(OC)c(NC(=O)COCC(F)(F)F)c1 | 227 µM | > 501 µM |
| NCc1cccc(OCc2ccccn2)c1 | 187 µM | > 501 µM |
| CC(C)CCNC(=O)Nc1ccc(S(C)(=O)=O)cc1 | 162 µM | 127 µM |
| CN(C)C(=O)CN1CCCC1c1ccc(F)cc1 (stereo not given) | 96.3 µM | 143 µM |
| Cc1nnc(SCCCNC(=O)c2cc(Cl)c[nH]2)s1 | 121 µM | 119 µM |
| CCCn1cc(CNc2nc(C3CC3)no2)cn1 | 125 µM | 151 µM |
| Cc1ccc2c(c1)nc(CN)n2C | 231 µM | 348 µM |
| CC(C)Oc1ccc(CNC(=O)N2CCCC2)cn1 | 126 µM | 118 µM |

| Compound | IC50 [1] | IC50 [2] |
| --- | --- | --- |
| NS(=O)(=O)NCCCc1ccc(Br)cc1F | 151 µM | 218 µM |
| O=C(NC1CCCNC1)c1coc2ccccc12 (stereo not given) | > 501 µM | > 501 µM |
| CC(C(=O)NC1CC1)N1CCN(C)c2ccccc2C1 (stereo not given) | 248 µM | 276 µM |
| O=C(Cn1cnnn1)Nc1ccc(SC(F)F)cc1 | 180 µM | 290 µM |
| CC(=O)Nc1nc(COc2ccc(C)cn2)cs1 | 237 µM | 244 µM |
| Cc1cc(C(=O)NCC(CO)c2ccccc2)ns1 (stereo not given) | 103 µM | 130 µM |
| CCCS(=O)(=O)N(C)Cc1cccc(OCC)n1 | 367 µM | > 501 µM |
| C=C(C)COC(=O)c1ccc(-n2cncn2)cc1C | 182 µM | 279 µM |
| O=C(COc1ccccc1Cl)NCC(=O)c1ccco1 | 342 µM | > 501 µM |
| CCN(C1CC1)S(=O)(=O)c1ccc2c(c1)OCCO2 | 162 µM | > 501 µM |
| COCC1CCN(C(=O)c2cc(C3CC3)on2)CC1 | > 501 µM | 26.5 µM |
| CC(C)COCC(O)Cn1nnc(-c2ccco2)n1 (stereo not given) | 88.9 µM | 12.9 µM |
| C=C(Br)Cn1c(CO)nc2ccccc21 | > 501 µM | > 501 µM |
| CNC(=O)[C@@H](C)NC(=O)c1ccc(-c2ccc(C)o2)s1 | 297 µM | 278 µM |
| CN(C)c1nccc(CNc2ccc(C#N)nc2)n1 | 128 µM | 249 µM |
| CNS(=O)(=O)c1ccc(NCc2ccco2)cc1OC | 437 µM | 245 µM |
| CCC1CN(S(C)(=O)=O)c2ccccc2O1 (stereo not given) | 164 µM | > 501 µM |
| COc1ccc([C@H]2C[C@H](N)C2)cc1F | 95 µM | 60.7 µM |
| O=C(NCC(O)C1CCCCC1)[C@@H](O)c1ccccc1 (stereo not given in full) | 86.1 µM | 189 µM |
| OCCCNC(c1ccccc1)c1ccccn1 (stereo not given) | > 501 µM | > 501 µM |
| COC(=O)CCCNc1ccc2c(c1)OCCO2 | 140 µM | 467 µM |
| CCN1CCN(c2ccccc2O)CC1 | 210 µM | 189 µM |

| Compound | IC50 [1] | IC50 [2] |
| --- | --- | --- |
| Cc1cccc(NCC(=O)NC2CCCCC2)n1 | 152 µM | 148 µM |
| COCCSCc1cccc(NC(=O)C(C)N)c1 (stereo not given) | 119 µM | > 501 µM |
| NC1(c2nc(-c3ccccc3)c[nH]2)CCCC1 | 176 µM | 258 µM |
| CNC(=O)CCN1CCC(=Cc2ccccc2)CC1 | 258 µM | > 501 µM |
| Cc1noc(NC(=O)c2ccc(C(F)(F)F)nc2C)n1 | 164 µM | 151 µM |
| CN1CCN(C(=O)c2cnsn2)c2ccccc21 | > 501 µM | > 501 µM |
| COc1ccc(C(N)c2ccc(OC)cc2OC)cc1 (stereo not given) | 186 µM | 291 µM |
| CN(Cc1ccc(N)nc1)c1ccc(C#N)cn1 | > 501 µM | > 501 µM |
| Cc1ccc(C(=O)CCN2CCOCC2C(N)=O)cc1 (stereo not given) | 59 µM | 152 µM |
| COc1ccccc1N1CCC(N)C1 (stereo not given) | 30.5 µM | 64.3 µM |
| NCCCNS(=O)(=O)c1ccc(Br)c(F)c1 | 189 µM | > 501 µM |
| NS(=O)(=O)N1CCN(CCCc2cccc(F)c2)CC1 | > 501 µM | > 501 µM |
| COCCOCCn1nc(C)c(C#N)c1N | > 501 µM | > 501 µM |
| O=C(Cn1cccn1)NCCc1ccc2c(c1)OCO2 | 251 µM | > 501 µM |
| Cc1ccc2nc(CCN)oc2c1 | 78.4 µM | 23.3 µM |
| NCc1cc(Cl)ccn1 | 156 µM | 301 µM |
| CCC(CO)Nc1nccc(C(F)(F)F)n1 (stereo not given) | > 501 µM | > 501 µM |
| CCn1nc(C)cc1C(=O)Nc1ccnc(N(C)C)n1 | 96.2 µM | > 501 µM |
| NS(=O)(=O)c1ccc(F)c(C(=O)Nc2ccccc2)c1 | 262 µM | > 501 µM |
| O=C(NCCn1cccc1)c1ccc(Cl)cn1 | 57.9 µM | 52.9 µM |
| FC(F)(F)c1cccc(NCc2cccnc2)n1 | 85.5 µM | 275 µM |
| O=C(c1cccc2cn[nH]c12)N1CCCC1CO (stereo not given) | > 501 µM | > 501 µM |
